{"source": "patent US20230405151A1", "about": "“USE OF IRAK4 MODULATORS FOR GENE THERAPY” (Genzyme Corporation, priority 2022, published 2023)", "key": {"[1]": {"test_system": "C57BL/6J mice injected with AAV (LacZ transgene)", "experiment": "In vivo mouse AAV model: intracellular cytokine staining of splenocytes", "details": "chow 30 mg/kg from 15 days prior to AAV; day 21; versus AAV group; N=10", "description": "In-vivo mice experiments. C57BL/6J mice were purchased from Jackson Laboratories. 6-8-week male mice were divided into 3 groups—PBS group, AAV group and AAV+IRAK4 group all groups with 10 mice each. Zimlovisertib IRAK4 inhibitor (Synonyms: PF-06650833) Cat. No.: HY-19836 (MedChemExpress) was mixed with mouse chow Catalog #2016, Teklad Global 16% Protein Rodent Diets https://www.inotivco.com/rodent-natural-ingredient-2016-diets at a dose of 30 mg/kg. AAV+IRAK4 group was fed the chow with Zimlovisertib IRAK4 inhibitor 15 days prior to AAV injection whereas PBS and AAV group were fed with mouse chow Catalog #2016, Teklad Global 16% Protein Rodent Diets https://www.inotivco.com/rodent-natural-ingredient-2016-diets. PBS group mice were injected intramuscularly with 100 ul PBS, AAV group was injected intramuscularly with 1e11 vg per quadricep muscle of both legs, 100 ul volume.\nIntracellular cytokine staining. Splenocytes were harvested from mouse spleens, and 2 million cells were seeded on a 96-well U-bottom plate. The cells were centrifuged at 2,000 rpm for 5 minutes and then resuspended with 100 μl of the RPMI containing 10% FBS and 1×2-mercaptoethanol. 10 μg/ml concentration of AAVrh32.33 overlapping peptide, AAVrh32.33 LacZ immunodominant peptide, and LacZ immunodominant peptide were prepared in the RPMI1640 containing 10% FBS, 1×2-mercaptoethanol, and 1:500 GolgiStop. For the positive control, 0.10 μg/ml PMA and 2 μg/ml Ionomycin solution were prepared in the RPIM1640 containing 10% FBS, 1×2-mercaptoethanol, and 1:500 GolgiStop. Then, 100 μl of the prepared solution was added to the cells, resulting in a final concentration of 5 μg/ml (or 0.05 μg/ml PMA and 1 μg/ml Ionomycin). The cells were incubated at 37° C. 5% CO2 incubator overnight to stimulate the cells. The next day, the cells were centrifuged at 2,000 rpm for 5 minutes, and then washed with the FACS buffer one time. The cells were stained with an antibody cocktail (1:100 anti-CD4 FITC, 1:100 anti-CD8a PerCP-Cy5.5, 1:100 anti-CD44 Pacific Blue, 1:100 Live/Dead Cell Stain Kit) for 30 minutes at 4° C. […]"}, "IRAK4 protein": {"target": "T1, IRAK4 protein (Mus musculus, UniProt Q8R4K2)", "T1 construct": "from tissue; host or cells: PBMCs from blood of C57BL/6J mice", "T1 sequence (Q8R4K2 1-459)": "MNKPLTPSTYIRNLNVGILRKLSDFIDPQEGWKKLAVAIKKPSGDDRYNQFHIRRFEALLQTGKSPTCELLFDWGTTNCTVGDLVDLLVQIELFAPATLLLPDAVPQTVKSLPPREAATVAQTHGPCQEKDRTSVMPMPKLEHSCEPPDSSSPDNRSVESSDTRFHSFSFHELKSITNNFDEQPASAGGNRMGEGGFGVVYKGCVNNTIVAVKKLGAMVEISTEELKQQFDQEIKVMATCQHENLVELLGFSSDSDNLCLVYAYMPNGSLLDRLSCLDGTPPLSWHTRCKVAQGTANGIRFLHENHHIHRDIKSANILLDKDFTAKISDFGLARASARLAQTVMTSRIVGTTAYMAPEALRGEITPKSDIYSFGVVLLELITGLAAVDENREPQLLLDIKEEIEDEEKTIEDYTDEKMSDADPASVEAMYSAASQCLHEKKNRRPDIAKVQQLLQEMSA", "experiment": "In vivo mouse AAV model: IRAK4 expression in PBMC immune cell types by flow cytometry", "details": "chow 100 mg/kg from 15 days prior to AAV; day 14; N=6", "description": "The same experiment design was followed with n=6 mice in each group PBS group, AAV group and AAV+IRAK4 degrader PROTAC IRAK4 degrader-1 Cat. No.: HY-129966 (MedChemExpress) that was mixed with chow at 100 mg/kg and fed to mice 15 days prior to AAV injection. […] AAV capsid used in the study had LacZ transgene. All animal experiments were conducted in accordance with the Institutional Animal Care and Use Committees at Sanofi, Framingham. Submandibular bleeds were performed weekly, and necropsy was performed three weeks post AAV injection.\nPBMC isolation and surface staining. 120 ul blood was collected in K2EDTA coated tubes. The blood was mixed with DBPS at 1:1 ration and pipetted into a separate tube containing Ficoll (GE17-5442-02) to ensure no mixing of the blood and Ficoll phases. The mixture was centrifuged at 2000 RPM for 25 minutes at room temperature (9 acceleration and no braking). The buffy coat containing the peripheral blood mononuclear cells (PBMCs) was collected, transferred to a new tube, and centrifuged for five minutes at 400 RCF. PBMCs were washed three times with phosphate buffered saline (PBS) containing 1% fetal bovine serum (FBS) or fetal calf serum (FCS) and counted. The PBMC cells thus obtained were stained with different antibodies to quantify percentage of different immune cell subsets in peripheral blood.\nOn day 14 mice were bled and PBMCs were harvested. […]"}}}
{"smiles": "CC[C@@H]1[C@H](F)C(=O)N[C@@H]1COc1nccc2cc(C(N)=O)c(OC)cc12", "note": "[zimlovisertib, 1-[[(2S,3S,4S)-3-Ethyl-4-fluoro-5-oxo-2-pyrrolidinyl]methoxy]-7-methoxy-6-isoquinolinecarboxamide]", "values": [{"measurement": "Interferon gamma producing activated CD8 T cells, splenocytes stimulated with AAV immunodominant peptide", "setting": "[1]", "result": "reduce significantly"}, {"measurement": "Interferon gamma producing activated CD8 T cells, splenocytes stimulated with AAV peptide pools", "setting": "[1]", "result": "reduce significantly"}, {"measurement": "Interferon gamma producing activated CD8 T cells, splenocytes stimulated with LacZ immunodominant peptide", "setting": "[1]", "result": "reduce significantly"}]}
{"smiles": "O=C1CCC(N2C(=O)c3cccc(NCc4cn(CCCNC(=O)c5ccc(-n6cc(NC(=O)c7coc(-c8ccnc(NCC9CC9)c8)n7)c(C(F)(F)F)n6)cc5)cn4)c3C2=O)C(=O)N1", "note": "(stereo not shown) [PROTAC IRAK4 degrader-1]", "values": [{"measurement": "IRAK4 protein expression in all immune cell types evaluated in PBMCs (PBMCs, T cells, B cells, monocytes)", "setting": "IRAK4 protein", "result": "reduced significantly"}]}
